Holding throughout (assay type): ADME
For data set [1], the system named is Gomar. In words: Drug uptake in Phoenix dactylifera (date palm) gomar at 2.5 ml/l at 10 days post-treatment by UV spectrophotometric analysis. To be noted: 240 h.
Data set [2] concerns Leaf base. In words: Drug uptake in Phoenix dactylifera (date palm) leaf base at 2.5 ml/l at 20 days post-treatment by UV spectrophotometric analysis. To be noted: 480 h.
For data set [3], the system named is Gomar. In words: Drug uptake in Phoenix dactylifera (date palm) gomar at 2.5 ml/l at 20 days post-treatment by UV spectrophotometric analysis. The settings on record: 480 h.
The test system of data set [4] is Leaf base. Briefly: Drug uptake in Phoenix dactylifera (date palm) leaf base at 2.5 ml/l at 10 days post-treatment by UV spectrophotometric analysis. To be noted: 240 h.
The subject of data set [5] is Rachis. Briefly: Drug uptake in Phoenix dactylifera (date palm) rachis at 2.5 ml/l at 20 days post-treatment by UV spectrophotometric analysis. The settings on record: 480 h.
The subject of data set [6] is Pinnae. In words: Drug uptake in Phoenix dactylifera (date palm) pinnae at 2.5 ml/l at 10 days post-treatment by UV spectrophotometric analysis. The settings on record: 240 h.
For data set [7], the system named is Pinnae. In words: Drug uptake in Phoenix dactylifera (date palm) pinnae at 2.5 ml/l at 20 days post-treatment by UV spectrophotometric analysis. To be noted: 480 h.
Data set [8] deals with Root. In words: Drug uptake in Phoenix dactylifera (date palm) roots at 2.5 ml/l at 20 days post-treatment by UV spectrophotometric analysis. To be noted: 480 h.
Data set [9] concerns Rachis. In words: Drug uptake in Phoenix dactylifera (date palm) rachis at 2.5 ml/l at 10 days post-treatment by UV spectrophotometric analysis. The settings on record: 240 h.
The test system of data set [10] is Root. Briefly: Drug uptake in Phoenix dactylifera (date palm) roots at 2.5 ml/l at 10 days post-treatment by UV spectrophotometric analysis. To be noted: 240 h.

SMILES strings stand for the structures.

As for `O=[N+]([O-])NC1=NCCN1Cc1ccc(Cl)nc1` [IMIDACLOPRID], the Drug uptake in the data set on Gomar [1] is 0.46 ppm; in the data set with Leaf base [2] it was 0.38 ppm; in the data set on Gomar [3], 0.33 ppm; in the data set with Leaf base [4], 0.51 ppm; in the data set on Rachis [5], 1.11 ppm; in the data set on Pinnae [6], 0.32 ppm. Besides, the Drug uptake is recorded as 1.21 ppm with Pinnae [7], 0.18 ppm with Root [8], 1.31 ppm in the data set with Rachis [9] and 0.41 ppm with Root [10].

The values above are taken from ChEMBL document CHEMBL3046274, “Toxicity of imidacloprid to developmental stages of Rhynchophorus ferrugineus (Curculionidae: Coleoptera): Laboratory and field tests” (Crop Prot, 2006).
